Assay results: ChEMBL document CHEMBL1143408 (Antimicrob Agents Chemother, 2007)

What was measured:
Pseudomonas aeruginosa = test: Antimicrobial activity against Pseudomonas aeruginosa isolated from cystic fibrosis patient sputum culture
[1] = Drug level in healthy human serum at 2000 mg/20 mins infusion; assay type: ADME, cell-free; details: iv, read-out: Drug uptake
[2] = Drug level in human cystic fibrosis patient serum at 2000 mg/20 mins infusion; assay type: ADME, cell-free; details: iv, read-out: Drug uptake

C[C@H]1[C@H](NC(=O)/C(=N\OC(C)(C)C(=O)O)c2csc(N)n2)C(=O)N1S(=O)(=O)O [AZTREONAM]
MIC (Pseudomonas aeruginosa): ≤ 8 ng/mL | concentration at 20 min [1]: 242 µg/mL | concentration at 20 min [2]: 228 µg/mL
